Reference: US20120184744A1, “CRYSTALLINE HYDROCHLORIDE SALTS OF C-MET KINASE INHIBITORS” (priority 2009, published 2012)
Where a name gives a salt, the structure may show the parent alone.

What was measured:
Type in all cases: physicochemical
[1] = Crystal form conversion on exposure to relative humidity; details: room temperature
Source text: (§1) It rehydrates and converts back to the mono-HCl salt hydrate when exposed to higher than 75% relative humidity at room temperature. The mono-HCl salt anhydrate Form II can also convert to crystalline mono-HCl salt anhydrate Form I when slurried in Acetone:H2O co-solvent or other co-solvent systems with water activity below 0.57-0.60.
The 1.6-HCl salt anhydrate of Compound A is further characterized by reflections corresponding to d-spacings of 5.03, 4.30, and 4.14 angstroms. The 1.6-HCl salt anhydrate of Compound A is even further characterized by reflections corresponding to d-spacings of 3.93, 3.63, and 3.50 angstroms. The 1.6-HCl salt anhydrate converts to the 1.6-HCl salt hydrate upon exposure to 10-95% relative humidity at room temperature.

[2] = Solubility in 14.6 wt % IPA in DMF; details: organic solvent or mixture
Method: To prepare the mono-HCl salt anhydrate Form I of Compound A, dissolve 1.00 g of Compound A freebase monohydrate in 7.0 mL (6.65 g) DMF at 55° C. Next, charge 0.05 eq of HCl. Then, charge 0.25 wt % media-milled seed ([…] of API). The solubility of Compound A HCl seed in 14.6 wt % IPA in DMF is <2 mg/mL. Age seed bed for 1 hr. Next, charge 0.92 eq of HCl over 8 hrs (linear charge rate) holding batch at 55. No dispersion is required. Total HCl charge is 0.97 eq. Cool the batch from 55° C. to 22° C. over 1 hr. Hold batch at 22° C. for one hour, then filter.

[3] = Physical stability of the solid on storage under controlled temperature/relative humidity; details: for physical stability after storage: 5 months
[4] = Slurry experiment in organic solvent:H2O co-solvent (transition water activity, form conversion)
Method: This transition water activity was determined based on slurry experiment in Acetone:H2O, DMF:H2O and THF:H2O co-solvent. […] Crystalline mono-HCl salt hydrate dehydrates and converts to mono-HCl salt anhydrate Form II when exposed to low relative humidity or heated at high temperature.
as §1

## Cn1cc(-c2cnc3ccc4ccc(CS(=O)(=O)NCc5ccccn5)cc4c(=O)c3c2)cn1 [1.6-HCl salt anhydrate]
[1]
  relative humidity at which it converts to the 1.6-HCl salt hydrate: 10-95%

## Cn1cc(-c2cnc3ccc4ccc(CS(=O)(=O)NCc5ccccn5)cc4c(=O)c3c2)cn1 [Compound A HCl seed]
[2]
  solubility: < 2000 µg/mL

## Cn1cc(-c2cnc3ccc4ccc(CS(=O)(=O)NCc5ccccn5)cc4c(=O)c3c2)cn1 [Form I]
[3]; 40° C./75% relative humidity
  physical stability after storage: physically stable
[3]; room temperature/53% relative humidity
  physical stability after storage: physically stable
[3]; room temperature/85% relative humidity
  physical stability after storage: physically stable
[3]; solid state, on storage
  solid conversion to the mono-HCl salt hydrate: has not been observed

## Cn1cc(-c2cnc3ccc4ccc(CS(=O)(=O)NCc5ccccn5)cc4c(=O)c3c2)cn1 [mono-HCl salt anhydrate Form II]
[4]; slurried in Acetone:H2O co-solvent or other co-solvent systems
  water activity at which it converts to mono-HCl salt anhydrate Form I: 0.57-0.60
[1]
  relative humidity at which it rehydrates and converts back to the mono-HCl salt hydrate: higher than 75%

## Cn1cc(-c2cnc3ccc4ccc(CS(=O)(=O)NCc5ccccn5)cc4c(=O)c3c2)cn1 [mono-HCl salt hydrate]
[4]; room temperature or 40° C., slurry in Acetone:H2O, DMF:H2O and THF:H2O co-solvent
  transition water activity above which the mono-HCl salt hydrate is thermodynamically more stable than mono-HCl salt anhydrate Form I: 0.57-0.60
